Measurements as given in ChEMBL document CHEMBL1926633, “1,2,4-Triazole D-ribose derivatives: design, synthesis and antitumoral evaluation” (Eur J Med Chem, 2012).

Assays:
[1] = Cytotoxicity against mouse BW5147 cells expressing H-2 k haplotype, CD3+ and TCRalphabeta assessed as cell proliferation at 10 ug/mL after 24 hrs by [3H]TdR incorporation assay relative to control; assay type: functional; conditions: read-out: Activity
[2] = Cytotoxicity against mouse BW5147 cells expressing H-2 k haplotype, CD3+ and TCRalphabeta assessed as cell proliferation at 50 ug/mL after 24 hrs by [3H]TdR incorporation assay relative to control; assay type: functional; conditions: read-out: Activity
[3] = Cytotoxicity against mouse BW5147 cells expressing H-2 k haplotype, CD3+ and TCRalphabeta assessed as cell proliferation at 100 ug/mL after 24 hrs by [3H]TdR incorporation assay relative to control; assay type: functional; conditions: read-out: Activity
[4] = Cytotoxicity against mouse BW5147 cells expressing H-2 k haplotype, CD3+ and TCRalphabeta assessed as cell proliferation at 1 ug/mL after 24 hrs by [3H]TdR incorporation assay relative to control; assay type: functional; conditions: read-out: Activity
[5] = Lipophilicity, log P of the compound; assay type: physicochemical; conditions: octanol/water

With `C=CCO[C@@H]1O[C@H](CSc2ncn[nH]2)[C@H]2OC3(CCCC3)O[C@@H]12` the growth at 10 µg/mL [1] was -9%, the growth at 50 µg/mL [2] was -29% and the growth at 100 µg/mL [3] was -43%. It also gave a growth at 1 µg/mL [4] of -7% and a logP [5] of 1.95.

`C=CCO[C@@H]1O[C@H](CSc2ncn[nH]2)[C@@H](O)[C@H]1O` showed a growth at 10 µg/mL [1] of -3%, a growth at 50 µg/mL [2] of -14% and a growth at 100 µg/mL [3] of -38%. For the same compound, the growth at 1 µg/mL [4] was -2.4% and the logP [5] was -2.45.

For `C=CCO[C@@H]1O[C@H](Cn2c(-c3ccc(Cl)cc3)n[nH]c2=S)[C@H]2OC3(CCCC3)O[C@@H]12`, the growth at 10 µg/mL [1] was 44%, the growth at 50 µg/mL [2] was 70% and the growth at 100 µg/mL [3] was 123%. It also gave a growth at 1 µg/mL [4] of 49% and a logP [5] of 1.91.

In the case of `C=CCO[C@@H]1O[C@H](Cn2c(-c3ccc(Cl)cc3)n[nH]c2=S)[C@@H](O)[C@H]1O`, the growth at 10 µg/mL [1] is reported as 6%, the growth at 50 µg/mL [2] is reported as 4.4% and the growth at 100 µg/mL [3] is reported as 2%. For the same compound, the growth at 1 µg/mL [4] was -1.5% and the logP [5] was 0.18.

With `C=CCO[C@@H]1O[C@H](Cn2c(SCc3ccccc3)nnc2-c2ccc(Cl)cc2)[C@H]2OC3(CCCC3)O[C@@H]12` the growth at 10 µg/mL [1] was 0%, the growth at 50 µg/mL [2] was -13% and the growth at 1 µg/mL [4] was 37%. It also gave a logP [5] of 1.63.

In the case of `COc1cc(C2=NOC(CO[C@@H]3O[C@H](CSc4ncn[nH]4)[C@H]4OC5(CCCC5)O[C@@H]34)C2)cc(OC)c1OC` (mixture of isomers), the growth at 10 µg/mL [1] is reported as -21%, the growth at 50 µg/mL [2] is reported as -24% and the growth at 100 µg/mL [3] is reported as -45%. The growth at 1 µg/mL [4] was -5% and the logP [5] was 0.9.

For `COc1cc(C2=NOC(CO[C@@H]3O[C@H](CSc4ncn[nH]4)[C@@H](O)[C@H]3O)C2)cc(OC)c1OC` (mixture of isomers), the growth at 10 µg/mL [1] was 51%, the growth at 50 µg/mL [2] was 43% and the growth at 100 µg/mL [3] was 29%. For the same compound, the growth at 1 µg/mL [4] was 93% and the logP [5] was -0.52.

Work on `COc1cc(C2=NOC(CO[C@@H]3O[C@H](Cn4c(SCc5ccccc5)nnc4-c4ccc(Cl)cc4)[C@H]4OC5(CCCC5)O[C@@H]34)C2)cc(OC)c1OC` (mixture of isomers) yielded a growth at 10 µg/mL [1] of 60%, a growth at 50 µg/mL [2] of -18% and a growth at 100 µg/mL [3] of -45%. For the same compound, the growth at 1 µg/mL [4] was 215% and the logP [5] was 1.97.

Work on `COc1cc(C2=NOC(CO[C@@H]3O[C@H](Cn4c(SCc5ccccc5)nnc4-c4ccc(Cl)cc4)[C@@H](O)[C@H]3O)C2)cc(OC)c1OC` (mixture of isomers) yielded a growth at 10 µg/mL [1] of 210%, a growth at 50 µg/mL [2] of -52% and a growth at 100 µg/mL [3] of -67%. For the same compound, the growth at 1 µg/mL [4] was 143% and the logP [5] was 1.17.
